Assay results as given in patent US20250170248A1, “SMARCA DEGRADERS AND USES THEREOF” (Kymera Therapeutics, Inc., priority 2021, published 2025).

Assays:
Assay type in all cases: cell-based
SMARCA4 = molecular target: T1, SMARCA4 (Homo sapiens, UniProt P51532); assay: SMARCA4 Western blot degradation in MV4-11 cells; settings: 24 h; for Dmax: MV4-11, MV4-11 cells, read-out: SMARCA4 MSD MV411 degradation 24 h: average Dmax %; for DC50: MV4-11 cells, read-out: SMARCA4 MSD MV411 degradation 24 h: Mean external-Abs DC50
T1 construct: SMARCA2/SMARCA4 protein degradation selectivity in MV4-11 cells; endogenous in cells; host or cells: MV4-11
Method in brief: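 Protein levels quantified by LI-COR Western blot (beta-actin loading control) in RIPA lysates of MV4-11 cells after 24 h compound exposure. Degradation reported as DC50, Dmax % at 24 h and SMARCA2 vs SMARCA4 selectivity, each binned into letter codes.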

SMARCA2 [1] = molecular target: T2, SMARCA2 (Homo sapiens, UniProt P51531); assay: SMARCA2 Western blot degradation in MV4-11 cells; design: SMARCA2/SMARCA4 protein degradation selectivity in MV4-11 cells; endogenous in cells; host or cells: MV4-11; settings: for Dmax: MV4-11, MV4-11 cells, read-out: SMARCA2 MSD MV411 degradation 24 h: average Dmax %; for Dmax / DC50: 24 h; for DC50 / Selectivity in MV411: MV4-11 cells; for DC50: read-out: SMARCA2 MSD MV411 degradation 24 h: Mean external-Abs DC50; for Selectivity in MV411: SMARCA2/4 selectivity
SMARCA2 [2] = molecular target: T2, SMARCA2; assay: MSD SMARCA2 degradation in A549 cell line; settings: 24 h; for Dmax: A549, A549 cells; for DC50: A549 cells, read-out: SMARCA2 MSD A549 degradation 24 h: Average external-Abs DC50
Method in brief: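 SMARCA2 protein remaining after 24 h exposure of A549 cells (top concentration 1000 nM, 3-fold dilutions) was measured by MSD electrochemiluminescence immunoassay of cell lysates. Results are given as binned DC50 and maximal degradation (Dmax) codes.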

T1 sequence (P51532 whole entry): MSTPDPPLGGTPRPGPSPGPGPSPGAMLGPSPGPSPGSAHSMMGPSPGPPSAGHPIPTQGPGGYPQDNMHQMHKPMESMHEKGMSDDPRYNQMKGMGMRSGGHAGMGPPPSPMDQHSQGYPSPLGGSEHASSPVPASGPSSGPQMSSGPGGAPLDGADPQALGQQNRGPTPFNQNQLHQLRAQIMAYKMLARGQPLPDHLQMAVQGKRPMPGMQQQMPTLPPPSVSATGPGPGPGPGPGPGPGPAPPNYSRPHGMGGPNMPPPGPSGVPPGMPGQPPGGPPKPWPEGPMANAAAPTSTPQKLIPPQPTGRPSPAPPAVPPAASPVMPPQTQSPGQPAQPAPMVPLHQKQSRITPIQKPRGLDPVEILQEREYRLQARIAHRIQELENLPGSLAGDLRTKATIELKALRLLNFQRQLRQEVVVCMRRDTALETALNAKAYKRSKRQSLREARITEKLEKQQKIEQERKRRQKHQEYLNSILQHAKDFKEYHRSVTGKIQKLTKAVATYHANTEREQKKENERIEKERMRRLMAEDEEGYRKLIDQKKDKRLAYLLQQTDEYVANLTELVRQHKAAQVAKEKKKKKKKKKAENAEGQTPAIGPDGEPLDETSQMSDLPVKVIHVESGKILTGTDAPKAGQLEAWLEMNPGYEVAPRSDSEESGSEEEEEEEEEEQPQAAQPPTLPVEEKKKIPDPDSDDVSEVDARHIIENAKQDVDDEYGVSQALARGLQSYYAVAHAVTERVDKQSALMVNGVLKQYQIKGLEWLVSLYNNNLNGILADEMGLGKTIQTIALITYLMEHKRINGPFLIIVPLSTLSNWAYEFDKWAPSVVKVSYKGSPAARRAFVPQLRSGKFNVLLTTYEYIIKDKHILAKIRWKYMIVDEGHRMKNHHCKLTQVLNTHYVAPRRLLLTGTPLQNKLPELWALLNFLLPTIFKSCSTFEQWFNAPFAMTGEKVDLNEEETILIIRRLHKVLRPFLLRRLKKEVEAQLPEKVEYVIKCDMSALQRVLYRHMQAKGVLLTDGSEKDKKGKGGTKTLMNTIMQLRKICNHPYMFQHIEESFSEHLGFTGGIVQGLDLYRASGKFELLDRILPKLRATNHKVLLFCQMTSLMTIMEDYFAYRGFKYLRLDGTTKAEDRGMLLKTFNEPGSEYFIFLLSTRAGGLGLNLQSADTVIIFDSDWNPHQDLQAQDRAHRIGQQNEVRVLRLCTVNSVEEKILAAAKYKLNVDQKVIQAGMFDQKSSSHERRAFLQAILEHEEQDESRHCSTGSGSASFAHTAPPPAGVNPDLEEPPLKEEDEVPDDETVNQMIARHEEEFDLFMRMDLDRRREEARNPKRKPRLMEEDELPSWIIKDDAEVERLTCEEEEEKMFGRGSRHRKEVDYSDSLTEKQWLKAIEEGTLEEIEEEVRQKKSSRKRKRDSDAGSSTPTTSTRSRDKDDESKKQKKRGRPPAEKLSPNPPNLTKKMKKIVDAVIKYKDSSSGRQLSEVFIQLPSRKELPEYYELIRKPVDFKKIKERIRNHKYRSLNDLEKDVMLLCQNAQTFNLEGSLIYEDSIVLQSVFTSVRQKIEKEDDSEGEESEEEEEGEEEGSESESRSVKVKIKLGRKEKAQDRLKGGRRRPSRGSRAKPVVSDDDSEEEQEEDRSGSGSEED
T2 sequence (P51531 whole entry): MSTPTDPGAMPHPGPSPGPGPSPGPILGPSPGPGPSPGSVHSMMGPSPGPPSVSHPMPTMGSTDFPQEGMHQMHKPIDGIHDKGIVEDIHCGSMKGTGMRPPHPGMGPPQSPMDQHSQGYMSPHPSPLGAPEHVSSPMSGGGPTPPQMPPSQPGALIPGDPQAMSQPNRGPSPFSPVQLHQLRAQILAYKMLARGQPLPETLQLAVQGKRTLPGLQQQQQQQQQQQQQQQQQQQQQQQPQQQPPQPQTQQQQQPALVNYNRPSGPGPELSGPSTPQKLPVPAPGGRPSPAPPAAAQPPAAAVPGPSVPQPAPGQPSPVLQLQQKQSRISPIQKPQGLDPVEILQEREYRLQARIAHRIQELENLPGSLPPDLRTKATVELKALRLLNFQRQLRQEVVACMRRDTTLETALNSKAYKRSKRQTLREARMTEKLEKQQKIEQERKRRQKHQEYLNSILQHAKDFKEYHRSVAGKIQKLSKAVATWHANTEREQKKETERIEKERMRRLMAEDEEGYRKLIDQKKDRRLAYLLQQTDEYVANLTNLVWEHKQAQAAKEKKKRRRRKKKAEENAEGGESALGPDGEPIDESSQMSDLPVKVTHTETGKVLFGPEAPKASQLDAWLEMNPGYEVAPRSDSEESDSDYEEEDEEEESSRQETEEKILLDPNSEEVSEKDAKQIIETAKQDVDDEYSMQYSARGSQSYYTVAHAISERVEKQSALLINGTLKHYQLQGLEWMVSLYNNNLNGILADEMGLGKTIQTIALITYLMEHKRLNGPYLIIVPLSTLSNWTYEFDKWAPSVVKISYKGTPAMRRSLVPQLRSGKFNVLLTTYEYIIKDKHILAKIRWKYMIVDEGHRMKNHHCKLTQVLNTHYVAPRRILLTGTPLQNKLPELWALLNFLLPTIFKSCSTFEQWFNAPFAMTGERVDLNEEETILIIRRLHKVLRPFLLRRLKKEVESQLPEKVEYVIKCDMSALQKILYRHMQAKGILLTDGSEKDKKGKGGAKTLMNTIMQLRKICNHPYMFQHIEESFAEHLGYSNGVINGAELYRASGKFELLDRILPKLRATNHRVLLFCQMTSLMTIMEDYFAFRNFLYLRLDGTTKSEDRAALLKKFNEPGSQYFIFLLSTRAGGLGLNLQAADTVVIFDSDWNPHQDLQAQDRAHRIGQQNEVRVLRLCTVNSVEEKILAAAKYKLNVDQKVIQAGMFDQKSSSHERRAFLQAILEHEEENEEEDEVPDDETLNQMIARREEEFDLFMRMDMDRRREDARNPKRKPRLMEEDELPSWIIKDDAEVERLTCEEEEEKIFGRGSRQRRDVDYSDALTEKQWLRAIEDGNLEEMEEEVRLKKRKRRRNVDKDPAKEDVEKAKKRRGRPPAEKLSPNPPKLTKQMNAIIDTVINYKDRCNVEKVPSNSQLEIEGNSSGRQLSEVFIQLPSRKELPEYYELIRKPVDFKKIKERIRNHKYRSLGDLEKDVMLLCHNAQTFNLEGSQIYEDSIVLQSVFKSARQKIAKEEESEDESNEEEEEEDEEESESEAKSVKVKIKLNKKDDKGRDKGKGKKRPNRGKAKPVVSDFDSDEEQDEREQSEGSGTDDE

| Compound | Dmax (SMARCA4) | DC50 (SMARCA4) | Dmax (SMARCA2 [1]) | DC50 (SMARCA2 [1]) | Selectivity in MV411 (SMARCA2 [1]) | Dmax (SMARCA2 [2]) | DC50 (SMARCA2 [2]) |
| --- | --- | --- | --- | --- | --- | --- | --- |
| CC#Cc1ccc(CNC(=O)[C@@H]2C[C@@H](O)CN2C(=O)[C@@H](NC(=O)N2CC3(CC(N4CCC(c5cnc(N6CCc7[nH]c8nnc(-c9ccccc9O)cc8c7[C@H]6C)nc5)CC4)C3)C2)C(C)(C)C)c(OC)c1 [I-271] | < 50% | > 100 nM | 70 to 90% | 10 to 100 nM | C (C (10-100 fold)) | > 90% | 50 to 100 nM |
| C#Cc1ccc(CNC(=O)[C@@H]2C[C@@H](O)CN2C(=O)[C@@H](NC(=O)[C@H]2CC3(C2)C[C@H](N2CCN(C(=O)CCN4CCN5c6cc(-c7ccccc7O)nnc6NC[C@H]5C4)CC2)C3)C(C)(C)C)cc1 (stereo partly shown) [I-274] | > 90% | 10 to 100 nM | > 90% | 1 to 10 nM | C (C (10-100 fold)) | > 90% | > 100 nM |
| C#Cc1ccc(CNC(=O)[C@@H]2C[C@@H](O)CN2C(=O)[C@@H](NC(=O)[C@H]2CC3(C2)C[C@H](N2CCN(C(=O)CCN4CCN5c6cc(-c7ccccc7O)nnc6NC[C@H]5C4)CC2)C3)C(C)(C)C)cc1 (stereo partly shown) [I-275] |  | 10 to 100 nM |  | 1 to 10 nM | C (C (10-100 fold)) |  | > 100 nM |
| C#Cc1ccc(CNC(=O)[C@@H]2C[C@@H](O)CN2C(=O)[C@@H](NC(=O)N2CC3(CC(c4cnc(N5CCC(N6CCN7c8cc(-c9ccccc9O)nnc8NC[C@H]7C6)CC5)nc4)C3)C2)C(C)(C)C)cc1 [I-276] | > 90% | 10 to 100 nM | > 90% | 1 to 10 nM | C (C (10-100 fold)) | > 90% | < 10 nM |
| C#Cc1ccc(CNC(=O)[C@@H]2C[C@@H](O)CN2C(=O)[C@@H](NC(=O)c2ccc(N3CCC(N4CCC(N5CCN6c7cc(-c8ccccc8O)nnc7NC[C@H]6C5)CC4)CC3)cc2)C(C)(C)C)cc1 [I-277] | 70 to 90% | 10 to 100 nM | > 90% | 1 to 10 nM | C (C (10-100 fold)) | > 90% | < 10 nM |
| C#Cc1cc(O)c(CNC(=O)[C@@H]2C[C@@H](O)CN2C(=O)[C@@H](NC(=O)N2CC3(CC(N4CCC(c5cnc(N6CCc7[nH]c8nnc(-c9ccccc9O)cc8c7[C@H]6C)nc5)CC4)C3)C2)C(C)(C)C)c(Cl)c1 [I-281] | < 50% | > 100 nM | < 50% | > 100 nM | D (D (<10 fold)) | < 50% | > 100 nM |
| C#Cc1ccc([C@H](C)NC(=O)[C@@H]2C[C@@H](O)CN2C(=O)[C@@H](NC(=O)N2CC3(CC(N4CCC(c5cnc(N6CCc7[nH]c8nnc(-c9ccccc9O)cc8c7[C@H]6C)nc5)CC4)C3)C2)C(C)(C)C)c(O)c1 [I-282] | 70 to 90% | > 100 nM | 70 to 90% | 1 to 10 nM | C (C (10-100 fold)) | > 90% | < 10 nM |
| CC(C)C(C(=O)N1C[C@H](O)C[C@H]1C(=O)N[C@@H](C)C#Cc1ccccc1)c1cc(OCCN2CCC(N3CCC(N4CCC(CN5CCN6c7cc(-c8ccccc8O)nnc7NC[C@H]6C5)CC4)CC3)CC2)no1 (stereo partly shown) [I-283] | < 50% | > 100 nM | < 50% | > 100 nM | D (D (<10 fold)) | 70 to 90% | > 100 nM |
| C#Cc1ccc(CNC(=O)[C@@H]2C[C@@H](O)CN2C(=O)[C@@H](NC(=O)N2CCN(C3CC4(CCN(c5cnc(N6CCN7c8cc(-c9ccccc9O)nnc8NC[C@H]7C6)nc5)CC4)C3)CC2)C(C)(C)C)cc1 [I-284] | 50 to 70% | > 100 nM | > 90% | 1 to 10 nM | C (C (10-100 fold)) | > 90% | 10 to 50 nM |
| C#Cc1ccc(CNC(=O)[C@@H]2C[C@@H](O)CN2C(=O)[C@@H](NC(=O)N2CC3(CC(N4CCC(c5cnc(N6CCc7[nH]c8nnc(-c9ccccc9O)cc8c7[C@H]6C)nc5)CC4)C3)C2)C(C)(C)CCO)cc1 [I-288] | 70 to 90% | 10 to 100 nM | > 90% | 1 to 10 nM | C (C (10-100 fold)) | > 90% | < 10 nM |
